Data as given in ChEMBL document CHEMBL3593213, “Isolation of a Cyclic Depsipetide, Aspergillicin F, and Synthesis of Aspergillicins with Innate Immune-Modulating Activity” (J Nat Prod, 2015).
Calls of active or inactive are those of the source. The rule behind the calls is not given here.

What was measured:
Drosophila [1] = test: Cytotoxicity against Drosophila S2 assessed as reduction in cell viability at 0.1 to 100 ug/ml by WST8 dye based assay
Drosophila [2] = test: Innate immunity-regulating activity in Drosophila Dpt-lacZ larvae assessed as suppression of immune response by measuring DAP-type peptidoglycan-mediated Dpt-lacZ activation at 0.1 to 100 ug/ml incubated at 25 degC for 12 hrs by beta-galactosidase reporter gene assay; assay type: functional, organism-based
Drosophila [3] = test: Innate immunity-regulating activity in Drosophila Dpt-lacZ larvae assessed as suppression of immune response by measuring DAP-type peptidoglycan-mediated Dpt-lacZ activation at 10 ug/ml incubated at 25 degC for 12 hrs by beta-galactosidase reporter gene assay; assay type: functional
Drosophila [4] = test: Innate immunity-regulating activity in Drosophila Dpt-lacZ larvae assessed as suppression of immune response by measuring DAP-type peptidoglycan-mediated Dpt-lacZ activation at 1 ug/ml incubated at 25 degC for 12 hrs by beta-galactosidase reporter gene assay; assay type: functional, organism-based

| SMILES | inhibition (Drosophila [3]) | also measured |
| --- | --- | --- |
| CC[C@@H](C)[C@@H]1NC(=O)[C@H](Cc2ccc(OC)cc2)N(C)C(=O)[C@@H]2CCCN2C(=O)[C@@H]2CCCN2C(=O)[C@@H]([C@H](C)CC)NC(=O)[C@@H](NC(C)=O)[C@@H](C)OC1=O | – | Activity (Drosophila [1]): Non-toxic; inhibition (Drosophila [2]): Dose-dependent effect; inhibition at 10 µg/mL (Drosophila [3]): 37% |
| CC[C@@H](C)[C@H]1NC(=O)[C@@H](NC(C)=O)[C@@H](C)OC(=O)[C@H](C(C)C)NC(=O)[C@H](Cc2ccccc2)NC(=O)[C@@H]2CCCN2C(=O)[C@@H]2CCCN2C1=O | inactive | – |
| CCC[C@H]1NC(=O)[C@@H](NC(C)=O)[C@@H](C)OC(=O)[C@H](C(C)C)NC(=O)[C@H](Cc2ccc(OC)cc2)N(C)C(=O)[C@@H]2CCCN2C(=O)[C@@H]2CCCN2C1=O | inactive | – |
| CC[C@@H](C)[C@H]1NC(=O)[C@@H](NC(C)=O)[C@@H](C)OC(=O)[C@H](C(C)C)NC(=O)[C@H](Cc2ccccc2)N(C)C(=O)[C@@H]2CCCN2C(=O)[C@@H]2CCCN2C1=O | inactive | – |
| CC[C@@H](C)[C@H]1NC(=O)[C@@H](NC(C)=O)[C@@H](C)OC(=O)[C@H]([C@@H](C)CC)NC(=O)[C@H](Cc2ccc(OC)cc2)N(C)C(=O)[C@@H]2CCCN2C(=O)[C@@H]2CCCN2C1=O | inactive | – |
| COc1cc(O)c2c(c1)/C=C/C[C@H](O)[C@H](O)[C@@H](O)/C=C/C[C@H](C)OC2=O | – | inhibition (Drosophila [4]): Active |
| CC[C@@H](C)[C@H]1NC(=O)[C@@H](NC(C)=O)[C@@H](C)OC(=O)[C@H](C(C)C)NC(=O)[C@H](Cc2ccc(OC)cc2)N(C)C(=O)[C@@H]2CCCN2C(=O)[C@@H]2CCCN2C1=O | inactive | – |
